Laboratory results: patent US7262210B2, “Fluorinated pyridine N-oxide thrombin modulators and process for N-oxidation of nitrogen containing heteroaryls” (Janssen Pharmaceutica N.V., priority 2005, dated 2007)
Counter-ions that a name gives are not always drawn.

Molecular target: T1, Human α-thrombin (Homo sapiens, UniProt P00734)
T1 construct: Human α-thrombin (Enzyme Research Laboratories HT1002a); purchased Enzyme Research Laboratories (South Bend, Ind.) HT1002a
Assay: In vitro inhibition of purified enzyme; kinetic analysis by chromogenic substrates
Type: biochemical
Details: substrate SucAAPR pNA 100 uM, Km=320 μM, Ki factor=0.76; 37° C., pH 7.5, 4% DMSO; thrombin 1.1 nM; Ki=IC50×Ki factor
Procedure: In Vitro Inhibition of Purified Enzyme
Reagents: All buffer salts were obtained from Sigma Chemical Company (St. Louis, Mo.), and were of the highest purity available.
Human α-thrombin, was obtained from Enzyme Research Laboratories (South Bend, Ind.).
Kinetic Analysis by Chromogenic Substrates
Compounds were assessed for their inhibitory activity toward Thrombin by kinetic analysis using para-nitroaniline chromogenic substrates monitored at 405 nm. The assay buffer employed was 50 mM HEPES, pH 7.5, 200 mM NaCl, and fresh 0.05% n-octyl β-d-glucopyranoside. DMSO was present at a final concentration of 4%, derived from the substrate and inhibitory compound stock solutions. […] Reactions were initiated by addition of 10 μL protease, and increase in absorbance due to proteolytic cleavage of substrate was kinetically monitored at 37° C., 405 nm with a Molecular Devices Spectramax 340 platereader. Initial velocities were determined by analysis of the initial linear portion of the reactions. Plots of vo/vi vs. inhibitor concentration, where vo=velocity without inhibitor, and vi=inhibited velocity, were fit to a linear regression line, and the IC50 was determined from the reciprocal of the slope. […]

Ki: 9.8 to 11 nM
Compound: N#Cc1cc(F)c(NCC(F)(F)c2ccccn2)[n+]([O-])c1CC(=O)NCc1ncccc1F [Example 1, 2-[3-Cyano-6-(2,2-difluoro-2-pyridin-2-yl-ethylamino)-5-fluoro-1-oxy-pyridin-2-yl]-N-(3-fluoro-pyridin-2-ylmethyl)-acetamide dihydrochloride]
